Patent publication US12240838B2, “Inhibiting agents for Bruton's tyrosine kinase” (BIOGEN MA INC., priority 2019, dated 2025)

Tests used:
BTK [1] = molecular target: T1, BTK (Homo sapiens (Human), UniProt Q06187); experiment: In Vitro BTK Kinase Assay: BTK-POLYGAT-LS ASSAY; format: biochemical; conditions: ATP 10 μM, polyGAT 100 nM, BTK 0.25 nM, 30 minutes
Procedure: The purpose of the BTK in vitro assay is to determine compound potency against BTK through the measurement of IC50. […] The BTK kinase reaction was done in a black 96 well plate (costar 3694). For a typical assay, a 24 μL aliquot of a ATP/peptide master mix (final concentration; ATP 10 μM, polyGAT 100 nM) in kinase buffer (10 mM Tris-HCl pH 7.5, 10 mM MgCl2, 200 μM […], 5 mM DTT, 0.01% Triton X-100, and 0.2 mg/ml casein) is added to each well. Next, […] of a 4-fold, 40× compound titration in 100% DMSO solvent is added, followed by adding 15 μL of BTK enzyme mix in 1× kinase buffer (with a final concentration of 0.25 nM). The assay is incubated for 30 minutes before being stopped with […] of a 50 mM EDTA solution. Aliquots (5 μL) of the kinase reaction are transferred to a low volume white 384 well plate (Coming 3674), and […] of a 2× detection buffer (Invitrogen PV3574, with 4 nM Tb-PY20 antibody, Invitrogen PV3552) is added. The plate is covered and incubated for 45 minutes at room temperature. Time resolved fluorescence (TRF) on Molecular Devices M5 (332 nm excitation; 488 nm emission; 518 nm fluorescein emission) is measured.

BTK [2] = molecular target: T1, BTK; experiment: In Vitro PD Assay in Human Whole Blood (pBTK assay); format: cell-based; conditions: 37° C. for 30 min, 50% inhibition of ECL signal
Procedure: Human heparinized venous blood was purchased from Bioreclamation, Inc. or SeraCare Life Sciences and shipped overnight. Whole blood was aliquoted into 96-well plate and “spiked” with serial dilutions of test compound in DMSO or with DMSO without drug. The final concentration of DMSO in all wells was 0.1%. The plate was incubated at 37° C. for 30 min. Lysis buffer containing protease and phosphatase inhibitors was added to the drug-containing samples and one of the DMSO-only samples (+PPi, high control), while lysis buffer containing protease inhibitors was added to the other DMSO-only samples (−PPi, low control). All of the lysed whole blood samples were subjected to the total BTK capture and phosphotyrosine detection method described in US20160311802, incorporated herein by reference.

T1 sequence (Q06187 whole entry): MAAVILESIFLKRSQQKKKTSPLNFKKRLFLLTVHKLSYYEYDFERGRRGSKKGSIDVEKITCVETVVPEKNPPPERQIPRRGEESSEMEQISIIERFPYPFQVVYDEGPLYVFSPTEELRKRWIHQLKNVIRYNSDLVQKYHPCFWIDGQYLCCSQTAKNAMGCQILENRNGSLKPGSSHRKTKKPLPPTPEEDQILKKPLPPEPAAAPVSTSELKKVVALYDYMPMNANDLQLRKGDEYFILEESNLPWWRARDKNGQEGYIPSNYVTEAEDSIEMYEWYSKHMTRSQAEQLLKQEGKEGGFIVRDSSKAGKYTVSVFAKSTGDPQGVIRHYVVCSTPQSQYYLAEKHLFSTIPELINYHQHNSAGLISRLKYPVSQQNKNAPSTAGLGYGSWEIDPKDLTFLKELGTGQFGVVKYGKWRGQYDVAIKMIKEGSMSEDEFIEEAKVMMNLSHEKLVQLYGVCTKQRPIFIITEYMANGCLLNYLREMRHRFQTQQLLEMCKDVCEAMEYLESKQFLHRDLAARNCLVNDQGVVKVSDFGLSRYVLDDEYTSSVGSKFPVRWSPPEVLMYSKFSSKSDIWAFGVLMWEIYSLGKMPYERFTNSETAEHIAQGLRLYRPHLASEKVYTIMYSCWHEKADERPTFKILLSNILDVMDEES

Row | SMILES | IC50 (BTK [1]) [nM] | IC50 (BTK [2]) [nM]
1 | CC(C)(C)c1noc(C(=O)NCc2ccc(-c3ccnc(NC(=O)C4CC4)c3)c(F)c2Cl)n1 [Compound 15, 3-(tert-butyl)-N-(2-chloro-4-(2-(cyclopropanecarboxamido)pyridin-4-yl)-3-fluorobenzyl)-1,2,4-oxadiazole-5-carboxamide] | ≤ 1 | ≤ 100
2 | CC(C)(C)c1nc(C(=O)NCc2ccc(-c3ccnc(NC(=O)C4CC4)c3)cc2C(F)(F)F)no1 [Compound 16, 5-(tert-butyl)-N-(4-(2-(cyclopropanecarboxamido)pyridin-4-yl)-2-(trifluoromethyl)benzyl)-1,2,4-oxadiazole-3-carboxamide] | ≤ 1 | 100 to 500
3 | CC(C)(C)c1noc(C(=O)NCc2ccc(-c3ccnc(NC(=O)C4CC4)c3)cc2C(F)(F)F)n1 [Compound 17, 3-(tert-butyl)-N-(4-(2-(cyclopropanecarboxamido)pyridin-4-yl)-2-(trifluoromethyl)benzyl)-1,2,4-oxadiazole-5-carboxamide] | ≤ 1 | ≤ 100
4 | CC(C)(C)c1noc(C(=O)N[C@@H]2CCCCc3cc(-c4ccnc(NC(=O)C5CC5)c4)ccc32)n1 [Compound 18, (R)-3-(tert-butyl)-N-(2-(2-(cyclopropanecarboxamido)pyridin-4-yl)-6,7,8,9-tetrahydro-5H-benzo[7]annulen-5-yl)-1,2,4-oxadiazole-5-carboxamide] | ≤ 1 | ≤ 100
5 | Cc1cc(-c2ccnc(NC(=O)C3CC3)c2)ccc1[C@@H](C)NC(=O)c1noc(C(C)(C)C)n1 [Compound 19, (R)-5-(tert-butyl)-N-(1-(4-(2-(cyclopropanecarboxamido)pyridin-4-yl)-2-methylphenyl)ethyl)-1,2,4-oxadiazole-3-carboxamide] | ≤ 1 | ≤ 100
6 | Cc1cc(-c2cc(NC(=O)C3CC3)ncc2F)ccc1[C@@H](C)NC(=O)c1noc(C(C)(C)C)n1 [Compound 20, (R)-5-(tert-butyl)-N-(1-(4-(2-(cyclopropanecarboxamido)-5-fluoropyridin-4-yl)-2-methylphenyl)ethyl)-1,2,4-oxadiazole-3-carboxamide] | ≤ 1 | ≤ 100
7 | C[C@@H](NC(=O)c1noc(C(C)(C)C)n1)c1ccc(-c2ccnc(NC(=O)C3CC3)c2)cc1Cl [Compound 21, (R)-5-(tert-butyl)-N-(1-(2-chloro-4-(2-(cyclopropanecarboxamido)pyridin-4-yl)phenyl)ethyl)-1,2,4-oxadiazole-3-carboxamide] | ≤ 1 | ≤ 100
8 | C[C@@H](NC(=O)c1noc(C(C)(C)C)n1)c1ccc(-c2cc(NC(=O)C3CC3)ncc2F)cc1Cl [Compound 22, (R)-5-(tert-butyl)-N-(1-(2-chloro-4-(2-(cyclopropanecarboxamido)-5-fluoropyridin-4-yl)phenyl)ethyl)-1,2,4-oxadiazole-3-carboxamide] | ≤ 1 | 100 to 500
9 | Cc1cc(-c2cc(NC(=O)C3CC3)ncc2C(F)(F)F)ccc1CNC(=O)c1noc(C(C)(C)C)n1 [Compound 26, 5-(tert-butyl)-N-(4-(2-(cyclopropanecarboxamido)-5-(trifluoromethyl)pyridin-4-yl)-2-methylbenzyl)-1,2,4-oxadiazole-3-carboxamide] | 1 to 10 | > 10000
10 | CC(C)(C)n1cc(F)c(C(=O)NCc2ccc(-c3ccnc(NC(=O)C4CC4)c3)c(F)c2C2CC2)n1 [Compound 29, 1-(tert-butyl)-N-(4-(2-(cyclopropanecarboxamido)pyridin-4-yl)-2-cyclopropyl-3-fluorobenzyl)-4-fluoro-1H-pyrazole-3-carboxamide] | 1 to 10 | 500 to 10000
11 | CC(C)(C)c1ncc(C(=O)NCc2ccc(-c3ccnc(NC(=O)C4CC4)c3)c(F)c2C2CC2)o1 [Compound 30, 2-(tert-butyl)-N-(4-(2-(cyclopropanecarboxamido)pyridin-4-yl)-2-cyclopropyl-3-fluorobenzyl)oxazole-5-carboxamide] | 1 to 10 | > 10000
12 | Cc1c(CNC(=O)c2nn(C(C)(C)C)cc2F)ccc(-c2ccnc(NC(=O)C3CC3)c2)c1F [Compound 31, 1-(tert-butyl)-N-(4-(2-(cyclopropanecarboxamido)pyridin-4-yl)-3-fluoro-2-methylbenzyl)-4-fluoro-1H-pyrazole-3-carboxamide] | ≤ 1 | 500 to 10000
13 | Cc1c(CNC(=O)c2cnc(C(C)(C)C)o2)ccc(-c2ccnc(NC(=O)C3CC3)c2)c1F [Compound 32, 2-(tert-butyl)-N-(4-(2-(cyclopropanecarboxamido)pyridin-4-yl)-3-fluoro-2-methylbenzyl)oxazole-5-carboxamide] | ≤ 1 | 500 to 10000
14 | CC(C)(C)c1nc(C(=O)NCc2ccc(-c3ccnc(NC(=O)C4CC4)c3)c(F)c2C2CC2)no1 [Compound 33, 5-(tert-butyl)-N-(4-(2-(cyclopropanecarboxamido)pyridin-4-yl)-2-cyclopropyl-3-fluorobenzyl)-1,2,4-oxadiazole-3-carboxamide] | ≤ 1 | 500 to 10000
15 | CC(C)(C)c1noc(C(=O)NCc2ccc(-c3ccnc(NC(=O)C4CC4)c3)c(F)c2C2CC2)n1 [Compound 34, 3-(tert-butyl)-N-(4-(2-(cyclopropanecarboxamido)pyridin-4-yl)-2-cyclopropyl-3-fluorobenzyl)-1,2,4-oxadiazole-5-carboxamide] | ≤ 1 | 500 to 10000
16 | Cc1cc(-c2ccnc(NC(=O)C3CC3)c2)ccc1CNC(=O)c1noc(C(C)(C)CO)n1 [Compound 35, N-(4-(2-(cyclopropanecarboxamido)pyridin-4-yl)-2-methylbenzyl)-5-(1-hydroxy-2-methylpropan-2-yl)-1,2,4-oxadiazole-3-carboxamide] | 1 to 10 | 500 to 10000
17 | Cc1cc(-c2ccnc(NC(=O)C3CC34CCC4)c2)ccc1CNC(=O)c1noc(C(C)(C)C)n1 (stereo not drawn) [Compound 36] | 1 to 10 | > 10000
18 | Cc1cc(-c2ccnc(NC(=O)[C@H]3C[C@@H]3F)c2)ccc1CNC(=O)c1noc(C(C)(C)C)n1 [Compound 37, 5-(tert-butyl)-N-(4-(2-((1R,2S)-2-fluorocyclopropane-1-carboxamido)pyridin-4-yl)-2-methylbenzyl)-1,2,4-oxadiazole-3-carboxamide] | ≤ 1 | 500 to 10000
19 | Cc1cc(-c2ccnc(NC(=O)[C@@H]3C[C@H]3F)c2)ccc1CNC(=O)c1noc(C(C)(C)C)n1 [Compound 38, 5-(tert-butyl)-N-(4-(2-((1S,2R)-2-fluorocyclopropane-1-carboxamido)pyridin-4-yl)-2-methylbenzyl)-1,2,4-oxadiazole-3-carboxamide] | ≤ 1 | 500 to 10000
20 | Cc1cc(-c2ccnc(NC(=O)C3CC3)c2)ccc1CNC(=O)c1nc(C(C)(C)CF)no1 [Compound 39, N-(4-(2-(cyclopropanecarboxamido)pyridin-4-yl)-2-methylbenzyl)-3-(1-fluoro-2-methylpropan-2-yl)-1,2,4-oxadiazole-5-carboxamide] | ≤ 1 | 100 to 500
21 | Cc1cc(-c2ccnc(NC(=O)C3CC3)c2)ccc1CNC(=O)c1noc(C(C)(C)CF)n1 [Compound 41, N-(4-(2-(cyclopropanecarboxamido)pyridin-4-yl)-2-methylbenzyl)-5-(1-fluoro-2-methylpropan-2-yl)-1,2,4-oxadiazole-3-carboxamide] | ≤ 1 | 500 to 10000
22 | CC(C)(C)c1noc(C(=O)N[C@@H]2CCCCc3cc(-c4ccnc(NC(=O)[C@@H]5CC56CCC6)c4)ccc32)n1 [Compound 42, 3-(tert-butyl)-N-((R)-2-(2-((R)-spiro[2.3]hexane-1-carboxamido)pyridin-4-yl)-6,7,8,9-tetrahydro-5H-benzo[7]annulen-5-yl)-1,2,4-oxadiazole-5-carboxamide] | ≤ 1 | 500 to 10000
23 | Cc1cc(-c2ccnc(NC(=O)C3CC3)c2F)ccc1CNC(=O)c1noc(C(C)(C)C)n1 [Compound 44, 5-(tert-butyl)-N-(4-(2-(cyclopropanecarboxamido)-3-fluoropyridin-4-yl)-2-methylbenzyl)-1,2,4-oxadiazole-3-carboxamide] | 1 to 10 | 500 to 10000
24 | CC(C)(C)c1noc(C(=O)N[C@@H]2CCCCc3cc(-c4ccnc(NC(=O)[C@@H]5CC5(C)C)c4)ccc32)n1 [Compound 45, 3-(tert-butyl)-N-((R)-2-(2-((R)-2,2-dimethylcyclopropane-1-carboxamido)pyridin-4-yl)-6,7,8,9-tetrahydro-5H-benzo[7]annulen-5-yl)-1,2,4-oxadiazole-5-carboxamide] | 1 to 10 | > 10000
